Assay results: ChEMBL document CHEMBL3351223, “Single Diastereomer of a Macrolactam Core Binds Specifically to Myeloid Cell Leukemia 1 (MCL1)” (ACS Med Chem Lett, 2014)
The source made the active and inactive calls. The rule behind the calls is not given here.

Key:
[1] = biological target: T1, Induced myeloid leukemia cell differentiation protein Mcl-1 (Homo sapiens, UniProt Q07820)
Description: Binding affinity to human MCL1 (173 to 329 aa) at 250 uM by differential scanning calorimetry assay

[2] = biological target: T1, Induced myeloid leukemia cell differentiation protein Mcl-1; remark: listed apart in the source
Description: Binding affinity to human MCL1 (173 to 329 aa) using TAMRA-labeled Noxa peptide preincubated for 30 mins by fluorescent polarization assay

[3] = biological target: T1, Induced myeloid leukemia cell differentiation protein Mcl-1; remark: listed apart in the source
[4] = biological target: T1, Induced myeloid leukemia cell differentiation protein Mcl-1; remark: listed apart in the source
[5] = biological target: T1, Induced myeloid leukemia cell differentiation protein Mcl-1; settings: 25 uM
[6] = biological target: T1, Induced myeloid leukemia cell differentiation protein Mcl-1; settings: 100 uM
[7] = biological target: T1, Induced myeloid leukemia cell differentiation protein Mcl-1; settings: 800 uM

T1 sequence (Q07820 whole entry): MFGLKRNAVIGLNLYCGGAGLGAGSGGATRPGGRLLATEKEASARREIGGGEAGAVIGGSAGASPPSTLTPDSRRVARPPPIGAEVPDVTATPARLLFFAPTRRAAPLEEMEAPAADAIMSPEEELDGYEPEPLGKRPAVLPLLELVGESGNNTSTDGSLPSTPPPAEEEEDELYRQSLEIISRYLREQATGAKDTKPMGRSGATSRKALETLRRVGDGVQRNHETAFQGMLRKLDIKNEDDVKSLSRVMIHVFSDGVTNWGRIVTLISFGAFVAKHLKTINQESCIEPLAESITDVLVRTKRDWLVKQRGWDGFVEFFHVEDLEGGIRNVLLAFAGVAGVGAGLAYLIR

Compound `C[C@@H]1CN([C@@H](C)C(=O)O)C(=O)c2cccc(NS(=O)(=O)c3ccc(F)cc3)c2O[C@@H]1CN(C)C(=O)Nc1ccccc1C(F)(F)F` has a ΔTm [1] of 0.2 °C and an IC50 [2] greater than 50 µM.
In the case of `C[C@@H]1CN([C@@H](C)C(=O)O)C(=O)c2cccc(NS(=O)(=O)c3ccc(F)cc3)c2O[C@@H]1CN(C)C(=O)Nc1ccccc1`, the ΔTm [1] is reported as 0.2 °C and the IC50 [2] is reported as greater than 50 µM.
With `COc1ccc(NC(=O)N(C)C[C@H]2Oc3c(NS(=O)(=O)c4ccc(F)cc4)cccc3C(=O)N([C@@H](C)C(=O)O)C[C@H]2C)cc1` the ΔTm [1] was 0.2 °C and the IC50 [2] was greater than 50 µM.
`C[C@@H]1CN([C@@H](C)C(=O)O)C(=O)c2cccc(NS(=O)(=O)c3cccc(F)c3)c2O[C@@H]1CN(C)C(=O)Nc1ccc(C(F)(F)F)cc1` showed a ΔTm [1] of 3.4 °C and an IC50 [2] of 4.1 µM.
`C[C@@H]1CN([C@@H](C)C(=O)O)C(=O)c2cccc(NS(=O)(=O)Cc3ccccc3)c2O[C@@H]1CN(C)C(=O)Nc1ccc(C(F)(F)F)cc1` showed a ΔTm [1] of 1.4 °C and an IC50 [2] greater than 50 µM.
For `C[C@@H]1CN([C@@H](C)C(=O)O)C(=O)c2cccc(NS(=O)(=O)c3ccc(F)cc3)c2O[C@@H]1CN(C)C(=O)Nc1cccc2ccccc12`, the ΔTm [1] was -0.1 °C and the IC50 [2] was greater than 50 µM.
For `C[C@@H]1CN([C@@H](C)C(=O)O)C(=O)c2cccc(NS(=O)(=O)c3ccccc3F)c2O[C@@H]1CN(C)C(=O)Nc1ccc(C(F)(F)F)cc1`, the ΔTm [1] was 1.9 °C and the IC50 [2] was 21.3 µM.
`NS(=O)(=O)c1ccc(F)cc1` was tested, and the Activity [3] was “inactive” and the Activity [4] was “inactive”.
With `C[C@@H]1CN([C@@H](C)CO)C(=O)c2cccc(NS(=O)(=O)c3ccc(F)cc3)c2O[C@@H]1CN(C)C(=O)Nc1ccc(C(F)(F)F)cc1` the ΔTm [5] was 0.6 °C, the ΔTm [6] was 1.9 °C and the Activity [7] was “inactive”.
For `C[C@@H]1CN([C@@H](C)C(=O)O)C(=O)c2cccc(NS(=O)(=O)c3ccc(F)cc3)c2O[C@@H]1CN(C)C(=O)Nc1ccc2ccccc2c1`, the ΔTm [1] was 0.8 °C and the IC50 [2] was greater than 25 µM.
For `CN(C)C(=O)Nc1ccc(C(F)(F)F)cc1`, the Activity [3] was “inactive” and the Activity [4] was “inactive”.
With `C[C@@H]1CN([C@@H](C)C(=O)O)C(=O)c2cccc(NS(=O)(=O)c3ccc(F)cc3)c2O[C@@H]1CN(C)C(=O)Nc1cccc(C(F)(F)F)c1` the ΔTm [1] was 0.2 °C and the IC50 [2] was greater than 25 µM.
With `C[C@@H]1CN([C@@H](C)C(=O)O)C(=O)c2cccc(NS(=O)(=O)c3ccccc3)c2O[C@@H]1CN(C)C(=O)Nc1ccc(C(F)(F)F)cc1` the ΔTm [1] was 2.8 °C and the IC50 [2] was 10 µM.
Compound `C[C@@H]1CN([C@@H](C)C(=O)O)C(=O)c2cccc(NS(=O)(=O)CCc3ccccc3)c2O[C@@H]1CN(C)C(=O)Nc1ccc(C(F)(F)F)cc1` has a ΔTm [1] of 0.4 °C and an IC50 [2] greater than 50 µM.
For `C[C@@H]1CN([C@@H](C)CO)C(=O)c2cccc(NS(=O)(=O)c3ccccc3)c2O[C@@H]1CN(C)C(=O)Nc1ccc(C(F)(F)F)cc1`, the ΔTm [5] was 0.3 °C.
